Data as given in patent US20030135023A1, “Peptide structures useful for competitive modulation of dipeptidyl peptidase IV catalysis” (priority 2001, published 2003).
Several values for one entry are separate records, joined by “and”; a condition that tells them apart may be missing. Equal values may be shown once. Square brackets hold non-standard residues; d marks the D form. Peptide text beside a SMILES is read from it. Tle = CC(C)(C)[C@H](N)C(=O)O

Columns and labels:
[1] = tested on: diabetic Zucker rats (fa/fa); experiment: Oral glucose tolerance test (OGTT) in diabetic Zucker rats; format: in vivo; details: 100 mg/kg b.w. p.o.
Experimental: N=30 male Zucker rats (fa/fa), mean age 11 weeks (5-12 weeks), mean body weight 350 g (150-400 g), were purchased from Charles River (Sulzfeld, Germany). They were kept for >12 weeks until all the fatty Zucker rats had the characteristics of manifest Diabetes mellitus.
After overnight fasting, the fatty Zucker rats were given placebo, positive control and test substance, respectively, via feeding tube orally (15 G, 75 mm; Fine Science Tools, Heidelberg, Germany) at −10 min. An oral glucose tolerance test (OGTT) with 2 g/kg b.w. glucose as a 40% solution (B. Braun Melsungen, Melsungen, Germany) was implemented at ±0 min. The glucose was administered via a second feeding tube. Arterial blood samples from the carotid catheter were collected at −30 min, −15 min, ±0 min and at 5, 10, 15, 20, 30, 40, 60, 90 and 120 min into 20 μl glass capillaries, which were placed in standard tubes filled with 1 ml solution for hemolysis (blood glucose measurement).
Blood glucose: Glucose levels were measured using the glucose oxidase procedure (Super G Glukosemeβgerät; Dr. Müller Gerätebau, Freital, Germany).

plasma DP IV = target: T1, plasma DP IV (Rattus norvegicus, UniProt P14740); experiment: Plasma DP IV activity after intravasal and oral administration in Wistar rats; format: in vivo; details: for Plasma DP IV activity / DP IV-AUC / Drop of plasma DP IV activity: iv (intravasal) 100 mg/kg b.w.
T1 construct: The assay mixture consisted of 80 μl reagent and 20 μl plasma; from tissue; host or cells: plasma of Wistar rats
Experimental: Rats with intact catheter function were given the test substances intravasal (intraarterial) or oral, respectively, in random order (N=3 Wistar rats in each group). As positive control, […]. isoleucine thiazolidine*fumarate were administered intravasal.
After overnight fasting, 100 μl samples of heparinized arterial blood were collected at −30, −5, and 0 min into ice-cooled Eppendorf tubes (see below). The test substances were dissolved freshly in 1.0 ml saline (0.154 mol/l) and were given at 0 min either oral via a feeding tube ([…], 75 mm; Fine Science Tools, Heidelberg, Germany) or intravasal. For the intravasal route, the catheter was immediately flushed with 30 μl saline and an additional 1 ml of saline was given orally via the feeding tube.
Arterial blood samples were taken thereafter at 5, 10 (only in a limited number of experiments), 20, 40, 60 and 120 min from the carotid catheter of the conscious unrestrained rats and were always given into ice cooled Eppendorf tubes (Eppendorf-Netheler-Hinz, Hamburg, Germany) filled with 10 μl 1 M citrate buffer pH 3.0 for prevention of further hydrolysis of tripeptides by plasma DP IV activity. Eppendorf tubes were centrifuged immediately (12000 rpm for 2 min, Hettich Zentrifuge EBA 12, Tuttlingen; Germany): The plasma fractions were store on ice until analysis or were deeply frozen at −20 ° C. until analysis.
Plasma DP IV activity: The assay mixture consisted of 80 μl reagent and 20 μl plasma. Kinetic measurements of the formation of the yellow product 4-nitroaniline were performed at 390 nm for 1 min at 30° C. after 2 min pre-incubation at the same temperature. The activity was expressed as arbitrary units [AU] and DP IV activity [mU/ml].
The absolute values of plasma DP IV activity, the relative change of plasma DP IV activity and the time and extent of maximal inhibition were calculated. Data presentation included the presentation of area under the curve (AUC), which was used for evaluation of extent of inhibition of plasma DP IV activity during the two hours of observation. AUC was calculated using the trapezoidal rule.
To compare relative changes of parameters under the conditions of different initial values of DP IV activity an uniform standardised mean (values) was set up at the beginning of the test (see Figures and Tables).
Statistical evaluations were performed with Microsoft Excel® 97. All variables are presented as mean and standard deviation (SD). Treatment groups were compared by Student's t-test, within-group changes by paired t-test. Two-tailed values of p<0.05 were considered significant.

T1 sequence (P14740 37-767 limits assumed): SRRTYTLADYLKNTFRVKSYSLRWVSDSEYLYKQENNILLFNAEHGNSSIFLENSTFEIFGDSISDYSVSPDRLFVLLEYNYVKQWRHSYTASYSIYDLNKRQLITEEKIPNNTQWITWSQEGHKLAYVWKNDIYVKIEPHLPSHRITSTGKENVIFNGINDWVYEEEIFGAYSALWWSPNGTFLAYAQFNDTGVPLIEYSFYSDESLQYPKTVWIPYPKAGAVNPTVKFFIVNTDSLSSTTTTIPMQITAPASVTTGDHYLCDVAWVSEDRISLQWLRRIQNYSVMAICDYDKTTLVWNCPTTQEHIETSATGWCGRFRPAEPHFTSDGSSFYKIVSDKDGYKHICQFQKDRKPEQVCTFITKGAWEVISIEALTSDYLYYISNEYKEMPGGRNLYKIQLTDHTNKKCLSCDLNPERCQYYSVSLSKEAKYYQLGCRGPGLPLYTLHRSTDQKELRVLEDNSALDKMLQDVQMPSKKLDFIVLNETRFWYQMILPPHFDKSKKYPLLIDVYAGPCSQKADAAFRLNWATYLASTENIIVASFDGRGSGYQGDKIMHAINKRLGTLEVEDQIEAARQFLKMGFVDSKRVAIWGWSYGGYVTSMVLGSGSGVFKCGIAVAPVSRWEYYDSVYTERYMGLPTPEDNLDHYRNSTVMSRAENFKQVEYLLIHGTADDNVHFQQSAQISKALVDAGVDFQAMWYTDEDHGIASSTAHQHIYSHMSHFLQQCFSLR

SMILES: CC[C@H](C)[C@H](NC(=O)[C@@H]1CCCN1C(=O)[C@@H](N)C(C)(C)C)C(=O)O [t-butyl-Gly-Pro-Ile] (H-[Tle]-Pro-Ile-OH; N-terminus and C-terminus assumed)
- Improvement of glucose tolerance ([1]; AUC test compound vs AUC Control): 14.8%
- AUC test compound (glucose, OGTT) ([1]; OGTT 2 g/kg glucose): 653.2 mmol·min/L
- DP IV-AUC0-120 min (plasma DP IV; intra-vasal 100 mg/kg b.w.): −617±234 mU·min·ml^−1
- plasma DP IV at 5 min (plasma DP IV; intravasal 100 mg/kg b.w., p<0.05): below 10 mU/ml
- Plasma DP IV activity (plasma DP IV; 2.5 min, Mean): 19.01 mU/ml
- Plasma DP IV activity (plasma DP IV; 2.5 min, Standardized Mean): 15.18 mU/ml
- Plasma DP IV activity (plasma DP IV; 2.5 min, individual animals, 100 mg/kg): 15.35 mU/ml and 27.63 mU/ml and 14.04 mU/ml
- Plasma DP IV activity (plasma DP IV; 5 min, Mean): 18.86 mU/ml
- Plasma DP IV activity (plasma DP IV; 5 min, Standardized Mean): 15.03 mU/ml
- Plasma DP IV activity (plasma DP IV; 5 min, individual animals, 100 mg/kg): 15.35 mU/ml and 25.00 mU/ml and 16.23 mU/ml
- Plasma DP IV activity (plasma DP IV; 7.5 min, Mean): 21.05 mU/ml
- Plasma DP IV activity (plasma DP IV; 7.5 min, Standardized Mean): 17.22 mU/ml
- Plasma DP IV activity (plasma DP IV; 7.5 min, individual animals, 100 mg/kg): 17.11 mU/ml and 27.63 mU/ml and 18.42 mU/ml
- Plasma DP IV activity (plasma DP IV; 10 min, Mean): 17.25 mU/ml
- Plasma DP IV activity (plasma DP IV; 10 min, Standardized Mean): 13.42 mU/ml
- Plasma DP IV activity (plasma DP IV; 10 min, individual animals, 100 mg/kg): 17.11 mU/ml and 20.18 mU/ml and 14.47 mU/ml
- Plasma DP IV activity (plasma DP IV; 15 min, Mean): 15.50 mU/ml
- Plasma DP IV activity (plasma DP IV; 15 min, Standardized Mean): 11.67 mU/ml
- Plasma DP IV activity (plasma DP IV; 15 min, individual animals, 100 mg/kg): 14.47 mU/ml and 18.42 mU/ml and 13.60 mU/ml
- Plasma DP IV activity (plasma DP IV; 20 min, Mean): 18.71 mU/ml
- Plasma DP IV activity (plasma DP IV; 20 min, Standardized Mean): 14.88 mU/ml
- Plasma DP IV activity (plasma DP IV; 20 min, individual animals, 100 mg/kg): 15.35 mU/ml (2×) and 25.44 mU/ml
- Plasma DP IV activity (plasma DP IV; 40 min, Mean): 17.98 mU/ml
- Plasma DP IV activity (plasma DP IV; 40 min, Standardized Mean): 14.15 mU/ml
- Plasma DP IV activity (plasma DP IV; 40 min, individual animals, 100 mg/kg): 14.91 mU/ml and 23.68 mU/ml and 15.35 mU/ml
- Plasma DP IV activity (plasma DP IV; 60 min, Mean): 17.25 mU/ml
- Plasma DP IV activity (plasma DP IV; 60 min, Standardized Mean): 13.42 mU/ml
- Plasma DP IV activity (plasma DP IV; 60 min, individual animals, 100 mg/kg): 15.79 mU/ml and 22.37 mU/ml and 13.60 mU/ml
- Plasma DP IV activity (plasma DP IV; 120 min, Mean): 19.44 mU/ml
- Plasma DP IV activity (plasma DP IV; 120 min, Standardized Mean): 15.61 mU/ml
- Plasma DP IV activity (plasma DP IV; 120 min, individual animals, 100 mg/kg): 17.11 mU/ml and 25.88 mU/ml and 15.35 mU/ml
- DP IV-AUC (plasma DP IV; Mean): −673.4 AU · min
- Drop of plasma DP IV activity (plasma DP IV; Mean): 5.19 mU/ml
- DP IV-AUC (plasma DP IV; individual animals, 100 mg/kg): −452.9 AU · min and −1179.3 AU · min and −388.2 AU · min
- Drop of plasma DP IV activity (plasma DP IV; individual animals, 100 mg/kg): 5.70 mU/ml and 6.58 mU/ml and 3.29 mU/ml
